Columns and labels:
Type in all cases: biochemical
[1] = target: Human lysosome α-glucosidase (Homo sapiens, UniProt P10253); assay: In vitro enzyme inhibition; conditions: concentration required to inhibit the enzyme to 50% activity; read-out: IC50
Rat intestinal sucrase = target: T1, Rat intestinal sucrase (Rattus norvegicus, UniProt P23739); assay: In vitro enzyme inhibition, glucose release from disaccharide; conditions: concentration required to inhibit the enzyme to 50% activity; read-out: IC50
T1 construct: from tissue; host or cells: rat intestine

Rat intestinal maltase = assay: as above; conditions: concentration required to inhibit the enzyme to 50% activity
Description: Inhibition of glucosidases and glycosidases was detected as previously described. Briefly, assays were performed at the optimum pH of each enzyme, and appropriate disaccharide was provided as substrate for glucosidase release assays. Release of D-glucose was measured using a Glucose B-test (Wako Diagnostics). Appropriate p-nitrophenyl glycoside was added as substrate for additional glycosidase assays, and assays were stopped by adding 400 mM Na2CO3. Release of p-nitrophenol was measured spectrophotometrically at 400 nm.

[2] = target: T2, Rat intestinal isomaltase (Rattus norvegicus, UniProt P23739); assay: as above; conditions: concentration required to inhibit the enzyme to 50% activity; read-out: IC50
T2 construct: from tissue; host or cells: rat intestine

[3] = target: T3, Mouse ER α-glucosidase II (Mus musculus, UniProt Q8BHN3); assay: In vitro enzyme inhibition, 4MUG hydrolysis; conditions: concentration required to inhibit the enzyme to 50% activity
T3 sequence (Q8BHN3 33-944): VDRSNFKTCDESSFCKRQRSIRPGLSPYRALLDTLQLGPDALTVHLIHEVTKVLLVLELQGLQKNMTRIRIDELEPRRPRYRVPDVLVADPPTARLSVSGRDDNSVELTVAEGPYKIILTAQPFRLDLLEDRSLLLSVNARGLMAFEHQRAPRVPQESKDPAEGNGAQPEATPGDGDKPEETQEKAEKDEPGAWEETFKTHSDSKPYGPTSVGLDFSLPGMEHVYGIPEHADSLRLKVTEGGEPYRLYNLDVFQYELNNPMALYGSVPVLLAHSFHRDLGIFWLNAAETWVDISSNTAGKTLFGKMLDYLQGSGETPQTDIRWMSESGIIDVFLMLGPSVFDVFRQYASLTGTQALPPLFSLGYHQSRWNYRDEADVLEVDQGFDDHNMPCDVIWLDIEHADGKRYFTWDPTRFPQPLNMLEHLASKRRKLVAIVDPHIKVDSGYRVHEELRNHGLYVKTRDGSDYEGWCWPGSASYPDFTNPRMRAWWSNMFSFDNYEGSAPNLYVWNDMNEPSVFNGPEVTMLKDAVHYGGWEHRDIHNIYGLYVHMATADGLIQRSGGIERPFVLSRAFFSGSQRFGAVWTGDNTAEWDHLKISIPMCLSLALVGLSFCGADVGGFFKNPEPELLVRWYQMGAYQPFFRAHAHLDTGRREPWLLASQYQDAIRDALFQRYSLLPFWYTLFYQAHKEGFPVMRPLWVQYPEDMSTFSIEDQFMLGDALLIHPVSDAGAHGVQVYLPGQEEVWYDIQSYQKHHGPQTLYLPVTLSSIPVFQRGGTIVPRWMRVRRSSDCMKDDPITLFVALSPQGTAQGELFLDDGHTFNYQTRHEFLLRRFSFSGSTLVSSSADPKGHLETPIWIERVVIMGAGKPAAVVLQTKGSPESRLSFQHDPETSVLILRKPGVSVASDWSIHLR
T3 sequence (O08795 15-521 partner): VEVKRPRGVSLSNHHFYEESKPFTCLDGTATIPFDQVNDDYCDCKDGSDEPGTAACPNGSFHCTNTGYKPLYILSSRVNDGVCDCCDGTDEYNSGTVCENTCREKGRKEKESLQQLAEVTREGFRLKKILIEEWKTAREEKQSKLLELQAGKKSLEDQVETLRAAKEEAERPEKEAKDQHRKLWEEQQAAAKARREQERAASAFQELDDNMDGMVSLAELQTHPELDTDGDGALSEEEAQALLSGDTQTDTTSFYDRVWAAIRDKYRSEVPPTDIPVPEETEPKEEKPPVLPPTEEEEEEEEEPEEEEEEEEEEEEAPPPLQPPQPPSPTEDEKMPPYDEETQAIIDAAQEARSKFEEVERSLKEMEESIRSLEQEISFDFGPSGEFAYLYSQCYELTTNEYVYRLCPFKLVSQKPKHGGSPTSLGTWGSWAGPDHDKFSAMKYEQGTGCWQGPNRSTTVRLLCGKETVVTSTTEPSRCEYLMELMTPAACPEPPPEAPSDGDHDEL
Description: Recombinant Mus musculus ER alpha-glucosidase II inhibition was measured by incubating 20 nM enzyme with various concentrations of inhibitors in 100 mM potassium phosphate pH 7.2 at 37 °C for 5 minutes. Activity was measured by addition of 0.25 mM 4-methylumbelliferyl α-D-glucopyranoside (4MUG) (Sigma Aldrich) in black, non-binding surface-treated microplates (Corning). Fluorescence upon hydrolysis of the 4MUG was measured at λex of 355 nm and λem of 460 nm in a M5 multi-mode plate reader (Molecular Devices) at 37 °C, measuring fluorescence every minute for a total of 30 minutes. The initial velocity was fit in the linear range of measurements, and activity was normalized to the uninhibited control in order to plot activity against the inhibitor concentration. A sigmoidal, four-parameter function with a variable slope was used to determine the EC50 values in Prism (GraphPad).

T2 sequence (P23739 whole entry): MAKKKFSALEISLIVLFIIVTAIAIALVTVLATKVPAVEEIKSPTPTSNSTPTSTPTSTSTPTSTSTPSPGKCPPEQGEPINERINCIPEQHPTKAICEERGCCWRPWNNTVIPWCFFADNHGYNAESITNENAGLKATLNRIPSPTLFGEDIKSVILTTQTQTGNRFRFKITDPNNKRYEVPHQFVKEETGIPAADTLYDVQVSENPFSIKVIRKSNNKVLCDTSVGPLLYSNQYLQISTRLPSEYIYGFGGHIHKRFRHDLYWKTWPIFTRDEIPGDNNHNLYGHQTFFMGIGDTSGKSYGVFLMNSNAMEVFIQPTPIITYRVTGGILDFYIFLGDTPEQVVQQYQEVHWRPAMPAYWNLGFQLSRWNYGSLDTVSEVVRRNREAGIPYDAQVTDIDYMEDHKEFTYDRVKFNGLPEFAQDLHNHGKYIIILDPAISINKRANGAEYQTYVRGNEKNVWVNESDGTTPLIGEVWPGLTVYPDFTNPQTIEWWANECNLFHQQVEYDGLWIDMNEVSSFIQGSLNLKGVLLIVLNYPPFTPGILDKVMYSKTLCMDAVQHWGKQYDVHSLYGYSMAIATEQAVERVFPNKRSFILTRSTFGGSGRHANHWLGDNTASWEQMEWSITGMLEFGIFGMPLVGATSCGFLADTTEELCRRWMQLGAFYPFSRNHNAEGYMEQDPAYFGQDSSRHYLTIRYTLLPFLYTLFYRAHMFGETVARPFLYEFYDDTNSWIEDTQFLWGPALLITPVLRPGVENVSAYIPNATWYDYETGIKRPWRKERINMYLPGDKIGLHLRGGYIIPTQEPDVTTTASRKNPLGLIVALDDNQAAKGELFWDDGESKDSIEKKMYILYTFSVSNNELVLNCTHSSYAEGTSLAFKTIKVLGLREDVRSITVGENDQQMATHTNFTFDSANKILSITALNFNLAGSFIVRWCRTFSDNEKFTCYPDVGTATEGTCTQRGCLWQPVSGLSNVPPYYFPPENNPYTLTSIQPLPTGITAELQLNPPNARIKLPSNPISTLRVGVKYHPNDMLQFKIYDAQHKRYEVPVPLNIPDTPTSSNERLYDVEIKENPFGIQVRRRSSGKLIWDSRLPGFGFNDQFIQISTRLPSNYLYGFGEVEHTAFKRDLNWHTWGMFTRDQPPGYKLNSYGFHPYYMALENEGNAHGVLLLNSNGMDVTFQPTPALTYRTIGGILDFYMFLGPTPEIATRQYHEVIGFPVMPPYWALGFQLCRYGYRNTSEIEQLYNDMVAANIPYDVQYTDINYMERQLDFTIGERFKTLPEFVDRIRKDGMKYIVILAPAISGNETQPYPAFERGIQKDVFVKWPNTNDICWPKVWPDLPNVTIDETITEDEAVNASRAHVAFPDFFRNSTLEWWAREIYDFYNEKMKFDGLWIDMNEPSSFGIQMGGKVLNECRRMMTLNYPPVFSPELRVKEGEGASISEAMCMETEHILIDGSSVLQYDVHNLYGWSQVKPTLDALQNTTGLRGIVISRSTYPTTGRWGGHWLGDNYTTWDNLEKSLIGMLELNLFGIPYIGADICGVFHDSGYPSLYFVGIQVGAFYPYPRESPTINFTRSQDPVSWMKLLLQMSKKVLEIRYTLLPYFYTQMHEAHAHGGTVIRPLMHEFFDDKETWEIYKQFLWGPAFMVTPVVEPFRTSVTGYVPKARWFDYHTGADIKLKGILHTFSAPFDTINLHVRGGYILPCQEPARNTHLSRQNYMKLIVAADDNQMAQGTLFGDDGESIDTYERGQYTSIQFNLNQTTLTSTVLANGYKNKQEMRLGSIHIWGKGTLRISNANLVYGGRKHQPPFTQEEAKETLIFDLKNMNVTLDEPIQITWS
T1 sequence (P23739 whole entry): as above

IC50 [2] | Compound | IC50 [1] | IC50 (Rat intestinal sucrase) | IC50 (Rat intestinal maltase) | IC50 [3]
> 1000 µM | CCCCN1C[C@H](O)[C@@H](O)[C@@H](O)[C@H]1CO [NB-DGJ] | > 1000 µM | > 1000 µM | > 1000 µM | > 1000 µM
– | CCCCN1C[C@H](O)[C@@H](O)[C@H](O)[C@H]1CO [NB-DNJ, N-butyl-DNJ] | 0.27 µM | 0.44 µM | 1.1 µM | 5.2 µM
> 1000 µM | CCCCCCCCCN1C[C@H](O)[C@@H](O)[C@@H](O)[C@H]1CO [NN-DGJ] | > 1000 µM | > 1000 µM | > 1000 µM | > 1000 µM

Compound | IC50 [2] | IC50 [1] | IC50 (Rat intestinal sucrase) | IC50 (Rat intestinal maltase) | IC50 [3]
CCCC(=O)O[C@H]1CN2CC[C@H](O)[C@@H]2[C@@H](O)[C@@H]1O [Celgosivir, 6-O-butanoyl-castanospermine] | 29.3 µM | 93.2 µM | 2.7 µM | 17 µM | 158 µM

— PMC4790851, “Iminosugars Inhibit Dengue Virus Production via Inhibition of ER Alpha-Glucosidases—Not Glycolipid Processing Enzymes” (PLoS Neglected Tropical Diseases, 2016)
